How the values were obtained:
[1] = system: fetal lung fibroblast-like nononcogenic control cell line (WI-38); assay: 96 h SRB growth inhibition assay, WI-38; type: cell-based, human
Experimental: Compounds were screened with a 96 h SRB (sulforhodamine B) assay for their antiproliferative activity in a panel of human cancer cell lines comprising lung adenocarcinoma (A549), breast adenocarcinoma (MCF7), and PDAC (MIA PaCa-2 and PANC-1) cell lines, as well as a fetal lung fibroblast-like nononcogenic control cell line (WI-38) (Figure 1f). […] Gemcitabine is also active in these lines at low nanomolar levels, although less so in MIA PaCa-2 (IC50 19 ± 5 nM) and more so in BX-PC3 cells (6 ± 2 nM).
All cell lines were purchased from ATCC and maintained in appropriate medium supplemented with 10% fetal bovine serum (Invitrogen, UK), 2 mM L-glutamine (Invitrogen, Netherlands), and other components as specified by the suppliers. Cell lines were maintained at 37 °C, 5% CO2, and routinely passaged. Drugs were dissolved in H2O and filtered through 0.22 μm pore-size filter units (stock 10 mM) before addition to appropriate cell line media. Cellular growth inhibition was measured using the sulforhodamine B (SRB) assay in 96-well plates as described previously.[78] The 50% inhibitory concentrations (IC50) were determined by taking the mean absorbance at 540 nm for each drug concentration expressed as a percentage of the absorbance of untreated control wells.

[2] = system: PANC-1 and MIA PaCa-2 cells; assay: RNA-seq gene expression, genes common to PANC-1 and MIA PaCa-2; type: cell-based, human
From the text: CM03 is a potent G4 ligand, as shown by the FRET and quantitative binding experiments reported here. We therefore reasoned that the potent CM03 antiproliferative activity on PDAC cells could be mediated through a G4-targeting mechanism. To test this hypothesis, we determined whether transcriptome changes upon early CM03 treatment were correlated with G4 presence in promoters and/or gene bodies. […] The time and dose of CM03 treatment were selected to reveal initial but robust mRNA changes while minimizing chronic effects due to cell toxicity. In both cell lines, the number of genes with altered expression (as defined by >0.5 increase in Log 2 of fold change [Log2 FC], or < −0.5 decrease; false discovery rate [FDR] < 0.1) increased with duration of CM03 treatment. In PANC-1 cells 2165 genes at 6 h and 3977 genes at 24 h were seen to change, while in MIA PaCa-2 cells, 5306 genes changed at 6 h and 5477 genes at 24 h compared to untreated controls (Supporting Information, Table 1). […] To validate that the targeting of G4-containing genes is not a general feature of antiproliferative agents, we also examined the effects of the first-line therapeutic agent for PDAC, gemcitabine,[37] a potent antiproliferative DNA synthesis inhibitor whose mechanism of action is G4-independent and which remains a standard therapy option in advanced PDAC. Both cell lines were treated with a range of gemcitabine concentrations (Supporting Information, Figure 4, Table 4) for 6 or 24 h.
The PDAC cell lines PANC-1 (ATCC, catalogue no. CRL-1469) and MIA PaCa-2 (ATCC, catalogue no. CRL-142) were maintained in DMEM (ThermoFisher, catalogue no. 11965092) supplemented with 10% (v/v) heat inactivated FBS (ThermoFisher) in a humidified atmosphere containing 5% CO2 at 37 °C. Cell lines were confirmed mycoplasma free by RNA-capture ELISA, and their genotypes were certified by STR profiling.
PANC-1 (0.35 × 10^6 cells/well) and MIA PaCa-2 (1.5 × 10^6 cells/well) cell lines were seeded overnight in 60 mm plates. Next day, cells were treated with 400 nM CM03 for 6 and 24 h. For gemcitabine treatment, cells were treated for 6 and 24 h with DMSO or 30 nM, 100 nM, 300 nM, 1 μM, 3 μM, and 10 μM gemcitabine-HCL for PANC-1 cells and 30 nM, 300 nM, and 3 μM gemcitabine-HCl for MIA PaCa-2 cells. Total RNA was extracted using the Qiagen RNeasy Plus Mini Kit (ThermoFisher, catalogue no. 74134) as per the manufacturer’s instructions. RNA quality (RIN > 9.0) was checked with an Aligent 2100 bioanalyzer RNA 6000 Nano Chip, and RNA concentration was quantified using a Qubit fluorometer (ThermoFisher) and Qubit RNA HS Assay Kit (Qiagen, catalogue no. Q32852). RNA-seq libraries were then generated using the Illumina Truseq RNA HT (stranded mRNA) kit (Illumina, catalogue no. RS-122–2103) as per the manufacturer’s instructions and sequenced using an Illumina HiSeq4000.
Fastq raw sequencing files were preprocessed using cutadapt[81] to remove sequencing adapters and low quality sequencing tails (options −q 10) and then aligned to the human genome (GRCh37/hg19) using tophat2[82] and using the UCSC gtf file provided by Illumina iGenomes as an annotation file (http://support.illumina.com/sequencing/sequencing_software/igenome.html). Gene counts were calculated using htseq-count[83] and the same gtf file. Differential expression analysis was done using the R package edgeR.[84] Differentially expressed genes were estimated independently for both cell lines (MIA PaCa-2 and PANC-1) and for the different time points (6 and 24 h) and were then intersected to inspect the common genes. The sequencing data is available at the GEO public functional genomics data repository (https://www.ncbi.nlm.nih.gov/geo/) as GSE105083. Details of the putative G4 sequence (PQs) analysis are given in the Supporting Information.

[3] = Aqueous solubility and pH of the salt; type: physicochemical
From the text: The synthetic approach to the trisubstituted series adapts previously published procedures to simplify purification and increase yields of both intermediates and final compounds (Scheme 1). 5,5-Dimethyl-1,3-dibromohydantoin was used for the regioselective bromination of the starting material, enabling more efficient and convenient purification. The separation of final products was achieved using column chromatography, giving a 26% overall yield for CM03.
CM03 was then converted to a mixed hydrochloride/formate salt in order to enhance its aqueous solubility. At a concentration of 5 mg/mL, the pH of the CM03 salt solution was 6.95.

[4] = RNA-seq, 400 nM CM03, 6 h, both cell lines combined
[5] = RNA-seq, 400 nM CM03, 24 h, both cell lines combined

Compound: O=C1c2ccc3c4c(c(NCCN5CCCC5)cc(c24)C(=O)N1CCCN1CCOCC1)C(=O)N(CCCN1CCOCC1)C3=O [CM03, 2,7-bis(3-morpholinopropyl)-4-((2-(pyrrolidin-1-yl)ethyl)amino)benzo[lmn][3,8]phenanthroline-1,3,6,8(2H,7H)-tetraone]
- less activity toward the WI-38 cell line (vs MM41) [1]: > 4 fold
- genes changed in both cell lines ([2]; 400 nM CM03, 6 h): 1185
- genes changed in both cell lines ([2]; 400 nM CM03, 24 h): 1917
- KRAS mRNA expression ([2]; RNA-seq, 400 nM CM03, 6 and 24 h, either pancreatic cell line): unaffected
- A1BG combined_logFC.6h.both [2, 4]: 0.1086
- A2LD1 combined_logFC.6h.both [2, 4]: -0.2585
- AAAS combined_logFC.6h.both [2, 4]: -0.007867
- AACS combined_logFC.6h.both [2, 4]: 0.04302
- A1BG combined_logFC.24h.both [2, 5]: -0.3316
- A2LD1 combined_logFC.24h.both [2, 5]: -0.03116
- A4GALT combined_logFC.24h.both [2, 5]: 0.4104
- AACS combined_logFC.24h.both [2, 5]: -0.1174
- pH of mixed chloride/formate salt [3]: 6.9
- pH of the CM03 salt solution ([3]; concentration of 5 mg/mL, mixed hydrochloride/formate salt): 6.95
